From patent publication US10448639B2, “Fungicidal pyrazoles” (FMC CORPORATION, priority 2009, dated 2019) come the findings set out here.

Marks after values point to notes of the source that are not given here.

For one assay, the system named is Botrytis cinerea. Briefly: Test B: tomato Botrytis, preventive spray on tomato seedlings, visual disease rating. Conditions: tomato Botrytis; for Test B rating (% disease control): preventive spray, 0 = no control; for Test B rating (% disease control) / Test B disease control rating: 100 = 100% disease control; for Test B disease control rating: 0 = no disease control relative to controls.

The subject of assay [1] is Erysiphe graminis f sp. tritici. The assay can be described thus: Test J: wheat powdery mildew, preventive spray on wheat seedlings, visual disease rating. Conditions: wheat powdery mildew; for Test J rating (% disease control): preventive spray, 0 = no control; for Test J rating (% disease control) / Test J disease control rating: 100 = 100% disease control; for Test J disease control rating: sprayed the day before inoculation, 0 = no disease control relative to controls.

The subject of assay [2] is Puccinia recondita f. sp. tritici. Briefly: Test I: wheat leaf rust, preventive spray on wheat seedlings, visual disease rating. The following applies: wheat leaf rust; for Test I rating (% disease control): preventive spray, 0 = no control; for Test I rating (% disease control) / Test I disease control rating: 100 = 100% disease control; for Test I disease control rating: sprayed the day before inoculation, 0 = no disease control relative to controls.

In a further assay the test system is Septoria nodorum. Briefly: Test F: Septoria glume blotch, preventive spray on wheat seedlings, visual disease rating. The following applies: for Test F rating (% disease control) / Test F disease control rating: Septoria glume blotch on wheat, 100 = 100% disease control; for Test F rating (% disease control): preventive spray, 0 = no control; for Test F disease control rating: 0 = no disease control relative to controls.

Another assay relates to Alternaria solani. The assay can be described thus: Test C: tomato early blight, preventive spray on tomato seedlings, visual disease rating. The following applies: tomato early blight; for Test C rating (% disease control): preventive spray, 0 = no control; for Test C rating (% disease control) / Test C disease control rating: 100 = 100% disease control; for Test C disease control rating: 0 = no disease control relative to controls.

The test system of a further assay is Septoria tritici. Briefly: Test G: wheat leaf blotch, preventive spray on wheat seedlings, visual disease rating. Conditions: wheat leaf blotch, preventive spray; 100 = 100% disease control, 0 = no control.
In assay [3] the test system is Puccinia recondita f. sp. tritici. Briefly: Test H: wheat leaf rust, curative spray on inoculated wheat seedlings, visual disease rating. The following applies: wheat leaf rust; for Test H disease control rating: sprayed after inoculation, 100 = 100% disease control, 0 = no disease control relative to controls.
The mark [4] stands for this setting: rating marked with asterisk (*), meaning not given.

With `Cc1ccc(Nc2c(-c3c(F)cc(C#N)cc3F)c(C)nn2C)cc1` [compound 124], the “Test B rating (% disease control)” value in the assay with Botrytis cinerea amounted to 100%. The “Test J rating (% disease control)” value in assay [1] was found to be 94%. In assay [2], the “Test I rating (% disease control)” value worked out at 96%. For the same compound, the “Test F rating (% disease control)” value in the assay with Septoria nodorum came out at 60%. For the same compound, in the assay on Alternaria solani, the “Test C rating (% disease control)” value was determined as 78%. Moreover, the “Test G rating (% disease control)” value in the assay on Septoria tritici was 99%.
As to `Cc1nn(C)c(Nc2c(Cl)cc(F)cc2Cl)c1-c1ccc(F)cc1Br` [compound 316], the “Test B disease control rating” value in the assay with Botrytis cinerea was 99%. Besides, in assay [1], the “Test J disease control rating” value stood at 96%. In addition, the “Test I disease control rating” value in assay [2] was determined as 99%. For the same compound, the “Test F disease control rating” value in the assay on Septoria nodorum is given as 0%. Also, in the assay on Alternaria solani, the “Test C disease control rating” value is listed as 0%. Also, the “Test H disease control rating” value in assay [3] came out at 9%.
For the compound `Cc1nn(C)c(Nc2c(F)cc(Cl)cc2F)c1-c1ccc(F)cc1Cl` [Compound 286, N-(4-chloro-2,6-difluorophenyl)-4-(2-chloro-4-fluorophenyl)-1,3-dimethyl-1H-pyrazole-5-amine], the “Test B rating (% disease control), marked *” value in the assay on Botrytis cinerea (setting [4]) is 98* %. Moreover, the “Test J rating (% disease control), marked *” value in assay [1] (setting [4]) is 100* %. Further, the “Test I rating (% disease control), marked *” value in assay [2] (preventive, rating marked with asterisk (*), meaning not given) was 100* %. In addition, the “Test F rating (% disease control), marked *” value with Septoria nodorum (Septoria glume blotch, rating marked with asterisk (*), meaning not given) is 60* %. Further, in the assay on Alternaria solani (setting [4]), the “Test C rating (% disease control), marked *” value was 85* %. Besides, the “Test H rating (% disease control), marked *” value in assay [3] (curative, rating marked with asterisk (*), meaning not given) was 100* %.
As for `Cc1nn(C)c(C(O)c2c(F)ccc(F)c2F)c1-c1ccc(F)cc1Cl` (racemic) [compound 356], the “Test B disease control rating” value in the assay with Botrytis cinerea is recorded as 100%. For the same compound, in assay [1], the “Test J disease control rating” value came out at 0%. Besides, the “Test I disease control rating” value in assay [2] worked out at 100%. The “Test F disease control rating” value in the assay on Septoria nodorum stood at 0%. Further, in the assay on Alternaria solani, the “Test C disease control rating” value turned out to be 0%. In addition, the “Test H disease control rating” value in assay [3] turned out to be 100%.
Turning to `Cc1nn(C)c(Nc2ccc(Cl)c(F)c2)c1-c1c(F)cc(C#N)cc1F` [compound 125], the “Test B rating (% disease control)” value with Botrytis cinerea was 100%. Further, in assay [1], the “Test J rating (% disease control)” value was found to be 0%. The “Test I rating (% disease control)” value in assay [2] turned out to be 92%. The “Test F rating (% disease control)” value in the assay on Septoria nodorum was 60%. Further, in the assay on Alternaria solani, the “Test C rating (% disease control)” value was determined as 67%. The “Test G rating (% disease control)” value in the assay with Septoria tritici came out at 99%.
Turning to `COc1ccc(-c2c(C)nn(C)c2Oc2ccc(Cl)cc2)c(F)c1` [compound 15], in the assay on Botrytis cinerea, the “Test B rating (% disease control)” value worked out at 99%. Further, the “Test J rating (% disease control)” value in assay [1] is recorded as 99%. Besides, the “Test I rating (% disease control)” value in assay [2] was 98%. Moreover, the “Test F rating (% disease control)” value with Septoria nodorum was found to be 73%. In addition, the “Test C rating (% disease control)” value in the assay with Alternaria solani is listed as 67%. Further, in the assay with Septoria tritici, the “Test G rating (% disease control)” value was 99%.
Take `Cc1nn(C)c(Nc2ccc(Cl)c(F)c2)c1-c1c(F)cc(F)cc1F` [compound 14]: in the assay on Botrytis cinerea, the “Test B rating (% disease control)” value worked out at 98%. Moreover, the “Test J rating (% disease control)” value in assay [1] amounted to 98%. Further, the “Test I rating (% disease control)” value in assay [2] came out at 99%. Moreover, the “Test F rating (% disease control)” value in the assay on Septoria nodorum worked out at 0%. Further, the “Test C rating (% disease control)” value in the assay with Alternaria solani stood at 0%. The “Test G rating (% disease control)” value in the assay with Septoria tritici is 99%.
Consider `Cc1nn(C)c(Nc2c(Cl)cc(Br)cc2Cl)c1-c1ccc(F)cc1Cl` [compound 403], for which the “Test B disease control rating” value in the assay on Botrytis cinerea was determined as 99%. The “Test J disease control rating” value in assay [1] came to 99%. In assay [2], the “Test I disease control rating” value is on record as 100%. Besides, in the assay with Septoria nodorum, the “Test F disease control rating” value stood at 0%. For the same compound, the “Test C disease control rating” value in the assay on Alternaria solani was 0%. Besides, the “Test H disease control rating” value in assay [3] came to 99%.
